Measured values: patent US20120238604A1, “CYTOTOXIC COMPOUNDS” (Molecular Discovery Systems, priority 2009, published 2012)
Read-outs that look alike come from different tables or passages of the source.

Experiments:
[1] = system: HeLa cells expressing H2B-GFP; experiment: Induction of apoptosis, Annexin V binding; type: cell-based, human; conditions: overnight; 20 μM compound A1 or 100 nM paclitaxel
Procedure: HeLa cells were exposed overnight to 20 μM compound A1 or 100 nM paclitaxel, stained with a fluorescent Annexin V marker of apoptosis and visualised by epifluorescence microscopy following fixation.
FIG. 3 The H2B-GFP-expressing HeLa cells were treated overnight with 20 μM compound A1 or 100 nM paclitaxel. The cells were then exposed to Annexin-V tagged with Alexafluor 546 nm and visualized using an epifluorescence microscope equipped for digital imaging following fixation with 4% para-formaldehyde.

[2] = system: HeLa cells expressing H2B-GFP; experiment: Perturbation of mitotic spindle organisation and assembly, anti-β-tubulin staining; type: cell-based, human; conditions: 20 μM, overnight
Procedure: HeLa cells stably expressing a green fluorescent marker of nuclear DNA (H2B-GFP) were exposed overnight to carrier (DMSO) or 20 μM compounds A1 and B3. The cells were then fixed with methanol, stained with mouse monoclonal anti-β-tubulin antibody and Alexafluor 546 nm goat anti-mouse antibody, and fluorescent signal visualised by microscopy. The open circle indicates a cell with a perturbed mitotic spindle while the arrow indicates a cell with a mostly disassembled mitotic spindle.
These cells were exposed overnight to carrier (0.1% (v/v) DMSO) or an equivalent volume of DMSO containing compounds A1 and B3 (final concentration in the culture medium was 20 μM). The cells were then briefly rinsed with phosphate-buffered saline (PBS) prior to fixation with 100% methanol at −20° C. The fixed cells were then stained with mouse monoclonal anti-β-tubulin antibody and Alexafluor 546 nm goat anti-mouse antibody (diluted 400× from commercial stocks into PBS containing 10 mg/ml bovine serum albumin (BSA)). The GFP and 546 nm fluorescence signals were then visualised using a microscope equipped for digital confocal epifluorescence imaging. The open circle in FIG. 1 represents a cell with a perturbed mitotic spindle while the arrow points to a cell with a mostly unassembled mitotic spindle.

[3] = system: HeLa cells expressing H2B-GFP; experiment: Inhibition of cell proliferation (GI50) by nuclear counts, IN Cell Analyser; type: cell-based, human; conditions: for GI50: Homo sapiens; for GI50 / Anti-proliferative activity (effect of substitution, in words): HeLa; for GI50 / GI50 (HeLa): concentration causing 50% inhibition of cell proliferation, nuclear counts every 24 hours; for Anti-proliferative activity (effect of substitution, in words): text comment on Table 3
Procedure: Table 3 HeLa cells expressing H2B-GFP were plated in 96-well plates and exposed to concentrations ranging from 100 μM to […] of the indicated compounds C1-C78. The number of cells was then determined every 24 hours by imaging of the plates using an IN Cell Analyser (GE Healthcare), followed by measurement of the number of intact cell nuclei using Developer™ software (GE Healthcare). Drug concentrations that cause 50% inhibition of cell proliferation (GI50) were determined from the nuclear counts using GraphPad Prism software or ED50v10 freeware.

[4] = system: HeLa cells expressing H2B-GFP; experiment: Induction of mitotic arrest (EC50), mitotic index by phospho-histone 3 staining; type: cell-based; conditions: Homo sapiens, concentration for 50% induction of mitotic arrest, overnight, read-out: EC50 (mitosis) (HeLa)
Procedure: Parallel plates were treated overnight with the compounds to visualize the mitotic cells by staining with anti-phospho-histone 3 and Alexafluor 546 nm secondary antibodies after fixation with 4% paraformaldehyde. Following imaging of the nuclear GFP and phospho-histone 3 signals using an IN Cell Analyser (GE Healthcare), determination of the mitotic index by analysis of the images with Developer™ software (GE Healthcare) permitted estimation of the concentration that leads to 50% induction of the mitotic arrest (EC50). It can be seen that inhibition of cell proliferation and mitosis correlate well for the compounds tested.

GI50 [3] | EC50 ([4]; values in nM) | Structure (SMILES) | other results
– | – | Fc1ccc(NC(=S)N/N=C/c2ccccc2)cc1 [A1, BENZALDEHYDE N-(4-FLUOROPHENYL)THIOSEMICARBAZONE] | Induction of apoptotic cells (Annexin-V binding) [1]: induction of apoptotic cells; Effect on mitotic spindle organisation and assembly [2]: substantial alterations in the spatial organisation of mitotic spindle fibres and chromosomes
700 nM | – | COc1ccccc1/C=N/NC(=S)Nc1cccc(C)c1 [C1] | EC50 ([4]; values given in μM): ~1 µM
~15000 nM | – | COc1ccccc1/C=N/N(C)C(=S)Nc1cccc(C)c1 [C2] | –
≥ 20000 nM | – | COc1ccccc1/C(C)=N/NC(=S)Nc1cccc(C)c1 [C3] | –
≥ 20000 nM | – | COc1ccccc1/C=N/N(C)C(=S)N(C)c1cccc(C)c1 [C4] | –
~20000 nM | – | COc1ccccc1/C=N/NC(=S)Nc1ccc(C#N)cc1 [C5] | –
90 nM | 0.15 µM | COc1ccccc1/C=N/NC(=S)Nc1ccccc1C [C6] | –
5000 nM | – | COc1ccccc1/C=N/NC(=S)Nc1ccccc1 [C7] | –
100 nM | 0.3 µM | COc1ccccc1/C=N/NC(=S)Nc1ccccc1Cl [C8] | –
2000 nM | – | COc1ccc(NC(=S)N/N=C/c2ccccc2OC)cc1 [C10] | EC50 ([4]; values given in μM): > 1 µM
2000 nM | – | COc1ccccc1/C=N/NC(=S)Nc1cccc(C#N)c1 [C11] | –
≥ 20000 nM | – | COc1ccccc1/C=N/NC(=S)NC1CCCCC1 [C12] | –
1000 nM | – | COc1ccccc1/C=N/NC(=S)Nc1ccc(Cl)cc1 [C13] | –
4000 nM | – | COc1ccccc1/C=N/NC(=O)Nc1cccc(C)c1 [C14] | –
25 nM | ~0.07 µM | COc1ccccc1/C=N/NC(=S)Nc1ccccc1OC [C15] | Anti-proliferative activity (effect of substitution, in words) [3]: greatly increase the anti-proliferative activity
2600 nM | – | COc1ccccc1/C=N/NC(=S)Nc1cc(Cl)cc(Cl)c1 [C16] | –
~1000 nM | – | COc1ccccc1/C=N/NC(=S)Nc1cccc(F)c1 [C17] | –
700 nM | ≥ 0.03 µM | COc1ccccc1/C=N/NC(=S)Nc1ccc(C)cc1 [C18] | –
≥ 15000 nM | – | COc1ccc(OC)c(/C=N/NC(=S)Nc2cccc(C)c2)c1 [C19] | –
– | – | COc1cccc(/C=N/NC(=S)Nc2cccc(C)c2)c1OC [C20] | GI50 (HeLa) [3]: no activity
– | – | COc1cccc(OC)c1/C=N/NC(=S)Nc1cccc(C)c1 [C21] | GI50 (HeLa) [3]: no activity
– | – | Cc1cccc(NC(=S)N/N=C/c2ccccc2C)c1 [C22] | GI50 (HeLa) [3]: no activity
≥ 20000 nM | – | COc1ccccc1/C=N/NC(=S)Nc1ccc(C(F)(F)F)cc1 [C23] | –
500 nM | – | COc1ccccc1/C=N/NC(=S)Nc1cccc(Cl)c1 [C24] | –
– | – | COc1ccccc1/C=N/NC(=S)NCc1ccccc1 [C25] | GI50 (HeLa) [3]: no activity
1300 nM | – | COc1cccc(NC(=S)N/N=C/c2ccccc2OC)c1 [C26] | EC50 ([4]; values given in μM): ~1 µM

GI50 [3] | EC50 ([4]; values in nM) | Structure (SMILES) | other results
≥ 20000 nM | – | Cc1cccc(NC(=S)N/N=C/c2ccccc2F)c1 [C27] | –
~3000 nM | – | COc1ccccc1/C=N/NC(=S)Nc1ccc(F)c(Cl)c1 [C28] | –
1000 nM | – | COc1ccccc1/C=N/NC(=S)Nc1ccc(F)c(C)c1 [CB29] | –
500 nM | – | COc1ccccc1/C=N/NC(=S)Nc1cc(C)cc(C)c1 [CB30] | –
15 nM | 0.05 µM | COc1ccccc1/C=N/NC(=S)Nc1cc(Cl)ccc1OC [CB31] | –
25 nM | – | COc1ccccc1/C=N/NC(=S)Nc1cccc(Cl)c1OC [CB32] | –
1000 nM | – | C#Cc1ccccc1NC(=S)N/N=C/c1ccccc1OC [CB33] | –
11 nM | 0.01 µM | CCOc1ccccc1NC(=S)N/N=C/c1ccccc1OC [CB34] | Anti-proliferative activity (effect of substitution, in words) [3]: greatly increase the anti-proliferative activity
50 nM | 0.1 µM | COc1ccccc1/C=N/NC(=S)Nc1ccccc1Br [CB35] | –
~5000 nM | – | COc1ccccc1/C=N/NC(=S)NCc1cccc(C)c1 [CB36] | –
~3000 nM | – | COc1ccccc1/C=N/NC(=S)Nc1ccccc1C#N [CB37] | –
~3000 nM | – | COc1ccccc1/C=N/NC(=S)Nc1c(C)cccc1OC [CB38] | –
~3000 nM | – | COc1ccccc1/C=N/NC(=S)Nc1cccnc1Cl [CB39] | –
500 nM | – | FC(F)(F)c1ccccc1NC(=S)N/N=C/c1cccc2c1OCO2 [CB40] | –
~5000 nM | – | COc1ccccc1/C=N/NC(=S)NC(c1ccccc1)c1ccccc1 [CB41] | –
9.5 nM | – | COc1ccccc1/C=N/NC(=S)Nc1ccc(C)cc1C [CB42] | Anti-proliferative activity (effect of substitution, in words) [3]: greatly increase the anti-proliferative activity
~5000 nM | – | COc1ccccc1/C=N/NC(=S)Nc1ccc(C(C)C)cc1 [CB43] | –
~5000 nM | – | COc1ccccc1/C=N/NC(=S)Nc1c(C)cccc1C [CB44] | –
13 nM | – | CCc1ccccc1NC(=S)N/N=C/c1ccccc1OC [CB45] | Anti-proliferative activity (effect of substitution, in words) [3]: greatly increase the anti-proliferative activity
3 nM | – | COc1ccccc1/C=N/NC(=S)Nc1ccccc1C(C)C [CB46] | Anti-proliferative activity (effect of substitution, in words) [3]: greatly increase the anti-proliferative activity
~300 nM | – | COc1cc(C)c(NC(=S)N/N=C/c2ccccc2OC)cn1 [CB47] | –
100 to 300 nM | – | COc1ccccc1/C=N/NC(=S)Nc1cnccc1C(F)(F)F [CB48] | –
100 to 300 nM | – | COc1ccccc1/C=N/NC(=S)Nc1cccc2ccccc12 [CB49] | –
~3000 nM | – | COC(=O)c1sccc1NC(=S)N/N=C/c1ccccc1OC [CB50] | –
~10000 nM | – | COc1ccnc(NC(=S)N/N=C/c2ccccc2OC)c1 [CB51] | –
100 to 300 nM | – | COc1ccccc1/C=N/NC(=S)Nc1cccnc1C [CB52] | –

GI50 [3] | EC50 ([4]; values in nM) | Structure (SMILES) | other results
~10000 nM | – | COc1ccccc1/C=N/NC(=S)Nc1cnccc1C [CB53] | –
17 nM | – | COc1ccccc1/C=N/NC(=S)Nc1cccnc1OC [CB54] | –
~1000 nM | – | COc1ccccc1/C=N/NC(=S)Nc1cccc(C)n1 [CB55] | –
– | ~1 µM | COc1ccccc1/C=N/NC(=S)Nc1ccccc1OCC(C)C [CB56] | –
– | ~2 µM | COc1ccccc1/C=N/NC(=S)Nc1ccccc1CCO [CB57] | –
– | ~10 µM | COc1ccccc1/C=N/NC(=S)Nc1cc(C(=O)O)ccc1OC [CB58] | –
– | ~10 µM | COc1ccccc1/C=N/NC(=S)Nc1cc(-c2ccccc2)ccc1OC [CB59] | –
– | ~0.5 µM | COc1ccccc1/C=N/NC(=S)Nc1ccccc1OC(F)(F)F [CB60] | –
– | ~0.2 µM | COc1ccccc1/C=N/NC(=S)Nc1ccc(F)cc1C(F)(F)F [CB61] | –
– | ~0.05 µM | COc1ccccc1/C=N/NC(=S)Nc1ccc(Cl)cc1C(F)(F)F [CB62] | –
– | ~2 µM | CCOCCOc1ccccc1NC(=S)N/N=C/c1ccccc1OC [CB63] | –
– | > 10 µM | COc1ccccc1/C=N/NC(=S)Nc1ccc(-c2ccccc2)cc1OC(F)(F)F [CB64] | –
– | 0.1 µM | COc1ccccc1/C=N/NC(=S)Nc1ccc(N)c(C(F)(F)F)c1 [CB65] | –
– | > 10 µM | CCN(CC)CCOc1ccccc1NC(=S)N/N=C/c1ccccc1OC [CB66] | –
– | > 3 µM | CCOc1ccccc1NC(=S)N/N=C/c1cnccc1OC [CB67] | –
– | > 10 µM | CCOc1ccccc1NC(=S)N/N=C/c1cc(N(O)O)ccc1OC [CB68] | –
– | > 10 µM | COc1ccccc1/C=N/NC(=S)Nc1cccc2c1CCNC2 [CB69] | –
– | ~1 µM | CCOc1ccccc1NC(=S)N/N=C/c1cccnc1N [CB70] | –
– | ~0.5 µM | CCOc1ccccc1NC(=S)N/N=C/c1cnccc1C [CB71] | –
– | > 10 µM | CCOc1ccccc1NC(=S)N/N=C/c1ccncc1N [CB72] | –
– | ~1 µM | CCOc1ccccc1NC(=S)N/N=C/c1cccnc1OC [CB73] | –
– | ~1 µM | CCOc1ccccc1NC(=S)N/N=C/c1cc(O)ccc1OC [CB74] | –
– | 0.02 µM | COc1ccccc1/C=N/NC(=S)Nc1ccc(Cl)cc1Cl [CB75] | Anti-proliferative activity (effect of substitution, in words) [3]: greatly increase the anti-proliferative activity
– | > 10 µM | COc1ccccc1/C=N/NC(=S)Nc1ccc2c(c1)OCO2 [CB76] | –
– | ~2 µM | COc1ccccc1/C=N/NC(=S)Nc1cccnc1 [CB77] | –
– | > 10 µM | COc1ccccc1Nc1nnc(-c2ccccc2OC)[nH]1 [CB78] | –
